Data published in patent US4267192A, “Method for treating inflammation” (priority 1980, dated 1981).

Assays:
[1] = system: established adjuvant arthritis in rats; assay: established adjuvant arthritis, dosing on days 16, 17 and 18; settings: rat
Procedure: Polyarthritis is induced in groups of 6-10 Sprague-Dawley rats weighing between 180-220 g. by a subcutaneous injection into the right paw of dessicated Mycobacterium butyricum or tuberculosis (0.5 mg/0.1 ml.) suspended in light mineral oil. […] Both hind paw volumes (ml.) are measured by mercury plethysmograph on day 0 or at the time of injection of the complete adjuvant. Increases in paw volume (viz. edema) are determined for both paws on days 4 and 16. The change in body weight from day 0 to day 16 is also calculated. Statistical analysis of differences in paw edemas and body weight is performed by using the unpaired. Student's t-test.
The changes in left paw edema are measured at the end of 19 days, 23 days and 30 days.

[2] = system: carrageenan-induced edema in the hind paw of the rat; assay: rat carrageenan edema test (hind paw); format: in vivo, rat (male Sprague-Dawley); settings: for Change in paw volume (ml) from 0-3 hr: mean ± S.E.; for % Change in paw edema: vs control
Procedure: (§1) Vehicle alone is administered as a control. Sixty minutes after drug administration edema is induced by an injection of 0.1 ml. of a 1% carrageenan solution is saline into the subplantar tissue of the rat's right hind paw. Two minutes later, paw volume is measured volumetrically with a plethysmograph and again 3 hours later. The mean volume of swelling for the control group is calculated and compared to the test groups. Percent change in paw edema is calculated and analyzed statistically (unpaired, Student's t-test).

[3] = system: carrageenan-induced edema in the hind paw of normal and adrenalectomized rats; assay: carrageenan paw edema in normal and adrenalectomized rats; format: in vivo, rat
Procedure: as §1
Normal rats received the same doses as adrenalectomized rats.

[4] = oral 100 mg/kg, Table 1 group a
[5] = oral 180 mg/kg, Table 1 group c
[6] = oral 180 mg/kg, Table 1 group e
[7] = Adrenalectomized Rats, oral 100 mg/kg
[8] = Adrenalectomized Rats, oral 200 mg/kg

O=C(O)C=C1c2ccccc2C=Cc2ccccc21 [DCHA]
return to pretreatment or higher edema levels ([1]; end of 30 days, 12 days after last dosing): no significant return to pretreatment or even higher edema levels
% Change from Control, left paw edema (day 0-19) ([1]; oral 10 mg/kg, days 16, 17, 18): -20%
% Change from Control, left paw edema (day 0-23) ([1]; oral 10 mg/kg, days 16, 17, 18): -15%
% Change from Control, left paw edema (day 0-30) ([1]; oral 10 mg/kg, days 16, 17, 18): -21%
Increase in left paw edema ml. (day 0-19) ([1]; oral 10 mg/kg, days 16, 17, 18): 0.78 ± 0.11 mL
Increase in left paw edema ml. (day 0-23) ([1]; oral 10 mg/kg, days 16, 17, 18): 0.82 ± 0.13 mL
Increase in left paw edema ml. (day 0-30) ([1]; oral 10 mg/kg, days 16, 17, 18): 1.20 ± 0.16 mL
% Change from Control, left paw edema (day 0-19) ([1]; oral 30 mg/kg, days 16, 17, 18): -26%
% Change from Control, left paw edema (day 0-23) ([1]; oral 30 mg/kg, days 16, 17, 18): -10%
% Change from Control, left paw edema (day 0-30) ([1]; oral 30 mg/kg, days 16, 17, 18): -29%
Increase in left paw edema ml. (day 0-19) ([1]; oral 30 mg/kg, days 16, 17, 18): 0.75 ± 0.11 mL
Increase in left paw edema ml. (day 0-23) ([1]; oral 30 mg/kg, days 16, 17, 18): 0.87 ± 0.16 mL
Increase in left paw edema ml. (day 0-30) ([1]; oral 30 mg/kg, days 16, 17, 18): 1.07 ± 0.17 mL
% Change from Control, left paw edema (day 0-19) ([1]; oral 90 mg/kg, days 16, 17, 18): -42%
% Change from Control, left paw edema (day 0-23) ([1]; oral 90 mg/kg, days 16, 17, 18): -24%
% Change from Control, left paw edema (day 0-30) ([1]; oral 90 mg/kg, days 16, 17, 18): -32%
Increase in left paw edema ml. (day 0-19) ([1]; oral 90 mg/kg, days 16, 17, 18): 0.59 ± 0.06 mL
Increase in left paw edema ml. (day 0-23) ([1]; oral 90 mg/kg, days 16, 17, 18): 0.73 ± 0.10 mL
Increase in left paw edema ml. (day 0-30) ([1]; oral 90 mg/kg, days 16, 17, 18): 1.03 ± 0.11 mL
effect on left paw edema of rats with established adjuvant arthritis ([1]; oral, days 16, 17, 18): significant decrease in the left paw edema
estimated ED50 (carrageenan paw edema) ([2]; oral): ~80 mg/kg
oral doses that inhibit carrageenan paw edema ([2]; oral): 10 to 180 mg/kg
Change in paw volume (ml) from 0-3 hr ([2]; oral 3 mg/kg, Table 1 group a): 0.63 ± 0.10 mL
% Change in paw edema ([2]; oral 3 mg/kg, Table 1 group a): -18%
Change in paw volume (ml) from 0-3 hr ([2]; oral 10 mg/kg, Table 1 group a): 0.61 ± 0.05 mL
% Change in paw edema ([2]; oral 10 mg/kg, Table 1 group a): -21%
Change in paw volume (ml) from 0-3 hr ([2]; oral 10 mg/kg, Table 1 group b): 0.53 ± 0.10 mL
% Change in paw edema ([2]; oral 10 mg/kg, Table 1 group b): -48%
Change in paw volume (ml) from 0-3 hr ([2]; oral 20 mg/kg, Table 1 group c): 0.84 ± 0.10 mL
% Change in paw edema ([2]; oral 20 mg/kg, Table 1 group c): -16%
Change in paw volume (ml) from 0-3 hr ([2]; oral 20 mg/kg, Table 1 group e): 1.08 ± 0.05 mL
% Change in paw edema ([2]; oral 20 mg/kg, Table 1 group e): -6%
Change in paw volume (ml) from 0-3 hr ([2]; oral 30 mg/kg, Table 1 group a): 0.48 ± 0.06 mL
% Change in paw edema ([2]; oral 30 mg/kg, Table 1 group a): -38%
Change in paw volume (ml) from 0-3 hr ([2]; oral 30 mg/kg, Table 1 group b): 0.58 ± 0.08 mL
% Change in paw edema ([2]; oral 30 mg/kg, Table 1 group b): -43%
Change in paw volume (ml) from 0-3 hr ([2]; oral 60 mg/kg, Table 1 group c): 0.47 ± 0.08 mL
% Change in paw edema ([2]; oral 60 mg/kg, Table 1 group c): -53%
Change in paw volume (ml) from 0-3 hr ([2]; oral 60 mg/kg, Table 1 group e): 0.82 ± 0.13 mL
% Change in paw edema ([2]; oral 60 mg/kg, Table 1 group e): -29%
Change in paw volume (ml) from 0-3 hr ([2]; oral 90 mg/kg, Table 1 group b): 0.44 ± 0.03 mL
% Change in paw edema ([2]; oral 90 mg/kg, Table 1 group b): -57%
Change in paw volume (ml) from 0-3 hr [2, 4]: 0.44 ± 0.07 mL
% Change in paw edema [2, 4]: -43%
Change in paw volume (ml) from 0-3 hr [2, 5]: 0.49 ± 0.06 mL
% Change in paw edema [2, 5]: -51%
Change in paw volume (ml) from 0-3 hr [2, 6]: 0.62 ± 0.04 mL
% Change in paw edema [2, 6]: -46%
% Inhibition [3, 7]: 37%
Edema (ml) ± S.E. [3, 7]: 0.57 ± .02 mL
% Inhibition [3, 8]: 41%
Edema (ml) ± S.E. [3, 8]: 0.81 ± .04 mL
% Inhibition ([3]; Normal Rats, oral 100 mg/kg): 38%
Mean Edema (ml) ± S.E. ([3]; Normal Rats, oral 100 mg/kg): 0.58 ± .04 mL
% Inhibition ([3]; Normal Rats, oral 200 mg/kg): 44%
Mean Edema (ml) ± S.E. ([3]; Normal Rats, oral 200 mg/kg): 0.53 ± .05 mL
action by stimulating naturally occurring steroids ([3]; in words): independent of the adrenal glands
anti-inflammatory activity in adrenalectomized rats compared with normal control animals ([3]; oral 100 and 200 mg/kg): not different from that observed in normal control animals
